Data published in ChEMBL document CHEMBL3769303, “Discovery of membrane active benzimidazole quinolones-based topoisomerase inhibitors as potential DNA-binding antimicrobial agents” (Eur J Med Chem, 2016).
In brackets after ≈: the same amount, converted by molar mass. Activity calls are given as the source filed them. The calls are words filed in the database; no cut-off is given here.

How the values were obtained:
Shigella dysenteriae = assay: Antibacterial activity against Shigella dysenteriae by micro broth dilution method; assay type: functional
Staphylococcus aureus [1] = assay: Antibacterial activity against methicillin-resistant Staphylococcus aureus N315 by micro broth dilution method; assay type: functional
Staphylococcus aureus [2] = assay: Antibacterial activity against Staphylococcus aureus ATCC 25923 by micro broth dilution method; assay type: functional
Micrococcus luteus [3] = assay: Antibacterial activity against Micrococcus luteus ATCC 4698 by micro broth dilution method; assay type: functional; conditions: NCTC 2665
Bacillus spizizenii = assay: Antibacterial activity against Bacillus subtilis ATCC 6633 by micro broth dilution method; assay type: functional
Escherichia coli [4] = assay: Antibacterial activity against Escherichia coli DH52 by micro broth dilution method; assay type: functional
Escherichia coli [5] = assay: Antibacterial activity against Escherichia coli JM109 by micro broth dilution method; assay type: functional
Pseudomonas aeruginosa = assay: Antibacterial activity against Pseudomonas aeruginosa ATCC 27853 by micro broth dilution method; assay type: functional
[6] = Antibacterial activity against Bacillus proteus ATCC 13315 by micro broth dilution method; assay type: functional
Salmonella enterica [7] = assay: Antibacterial activity against Salmonella enterica ATCC 14028 by micro broth dilution method; assay type: functional
Micrococcus luteus [8] = assay: Potency index, ratio of chloromycin MIC to compound MIC for Micrococcus luteus ATCC 4698; assay type: functional, NCTC 2665
Bacillus [9] = assay: Potency index, ratio of chloromycin MIC to compound MIC for Bacillus proteus ATCC 13315; assay type: functional
Salmonella enterica [10] = assay: Potency index, ratio of chloromycin MIC to compound MIC for Salmonella enterica ATCC 14028; assay type: functional
Micrococcus luteus [11] = assay: Potency index, ratio of ciprofloxacin MIC to compound MIC for Micrococcus luteus ATCC 4698; assay type: functional, NCTC 2665
Micrococcus luteus [12] = assay: Potency index, ratio of clinafloxacin MIC to compound MIC for Micrococcus luteus ATCC 4698; assay type: functional, NCTC 2665
Bacillus [13] = assay: Potency index, ratio of clinafloxacin MIC to compound MIC for Bacillus proteus ATCC 13315; assay type: functional
Salmonella enterica [14] = assay: Potency index, ratio of clinafloxacin MIC to compound MIC for Salmonella enterica ATCC 14028; assay type: functional
[15] = Antifungal activity against Candida mycoderma ATCC 9888 after 24 hrs by micro broth dilution method; assay type: functional; conditions: Candida vini
Staphylococcus aureus [16] = assay: Bactericidal activity against methicillin-resistant Staphylococcus aureus N315 assessed as reduction in log10 CFU count at 6 times MIC after 24 hrs by time kill assay; assay type: functional
Staphylococcus aureus [17] = assay: Antibiofilm activity against methicillin-resistant Staphylococcus aureus N315 after 24 hrs by crystal violet staining-based plate reader assay; assay type: functional, organism-based; conditions: N315, 24 h
Escherichia coli [18] = assay: Antibiofilm activity against Escherichia coli DH52 after 24 hrs by crystal violet staining-based plate reader assay; assay type: functional, organism-based; conditions: DH52, 24 h
Staphylococcus aureus [19] = assay: Antibiofilm activity against methicillin-resistant Staphylococcus aureus N315 assessed as log10 CFU count at 0.125 ug/ml after 24 hrs (reference value: 13.6 log10 CFU/ml); assay type: functional
Staphylococcus aureus [20] = assay: Antibiofilm activity against methicillin-resistant Staphylococcus aureus N315 assessed as log10 CFU count at 0.25 ug/ml after 24 hrs (reference value: 13.6 log10 CFU/ml); assay type: functional
Staphylococcus aureus [21] = assay: Antibiofilm activity against methicillin-resistant Staphylococcus aureus N315 assessed as log10 CFU count at 1 ug/ml after 24 hrs (reference value: 13.6 log10 CFU/ml); assay type: functional
Staphylococcus aureus [22] = assay: Antibiofilm activity against methicillin-resistant Staphylococcus aureus N315 assessed as log10 CFU count at 2 ug/ml after 24 hrs (reference value: 13.6 log10 CFU/ml); assay type: functional
Staphylococcus aureus [23] = assay: Antibiofilm activity against methicillin-resistant Staphylococcus aureus N315 assessed as reduction in log10 CFU count after 24 hrs; assay type: functional, organism-based; conditions: N315, 24 h
Escherichia coli [24] = assay: Antibiofilm activity against Escherichia coli DH52 assessed as log10 CFU count at 0.5 ug/ml after 24 hrs (reference value: 16.2 log10CFU/ml); assay type: functional
Escherichia coli [25] = assay: Antibiofilm activity against Escherichia coli DH52 assessed as log10 CFU count at 0.25 ug/ml after 24 hrs (reference value: 16.2 log10CFU/ml); assay type: functional
Escherichia coli [26] = assay: Antibiofilm activity against Escherichia coli DH52 assessed as log10 CFU count at 2 ug/ml after 24 hrs (reference value: 16.2 log10CFU/ml); assay type: functional
Escherichia coli [27] = assay: Antibiofilm activity against Escherichia coli DH52 assessed as log10 CFU count at 4 ug/ml after 24 hrs (reference value: 16.2 log10CFU/ml); assay type: functional
Escherichia coli [28] = assay: Antibiofilm activity against Escherichia coli DH52 assessed as reduction in log10 CFU count after 48 hrs; assay type: functional, organism-based; conditions: DH52, 48 h
Staphylococcus aureus [29] = assay: Antibacterial activity against methicillin-resistant Staphylococcus aureus N315 assessed as membrane permeabilization at 12 times MIC measured for 15 mins by propidium iodide staining-based method; assay type: functional, organism-based
Escherichia coli [30] = assay: Antibacterial activity against Escherichia coli DH52 assessed as membrane permeabilization at 12 times MIC measured for 15 mins by propidium iodide staining-based method; assay type: functional, organism-based
Staphylococcus aureus [31] = assay: Antibacterial activity against methicillin-resistant Staphylococcus aureus N315 measured after 12 passages; assay type: functional
Escherichia coli [32] = assay: Inhibition of Escherichia coli topoisomerase 4 assessed as DNA relaxation using PUC19T-DNA at 10 uM after 2 hrs by ehtidium bromide staining-based agarose gel electrophoresis
HEK293 = assay: Cytotoxicity against HEK293 cells after 24 hrs by CCK8 assay; assay type: cell-based; conditions: Homo sapiens, HEK293, 24 h
Calf thymus DNA = assay: Binding affinity to calf thymus DNA by UV-visible spectroscopy; assay type: nucleic-acid assay; conditions: Bos taurus
Cyberlindnera jadinii = assay: Antifungal activity against Candida utilis ATCC 9950 after 24 hrs by micro broth dilution method; assay type: functional; conditions: Williopsis jadinii, ATCC 9950, 24 h
Aspergillus flavus = assay: Antifungal activity against Aspergillus flavus ATCC 204304 after 24 hrs by micro broth dilution method; assay type: functional; conditions: ATCC 204304, 24 h
Saccharomyces cerevisiae = assay: Antifungal activity against Saccharomyces cerevisiae ATCC 9763 after 24 hrs by micro broth dilution method; assay type: functional; conditions: ATCC 9763, 24 h
Candida albicans = assay: Antifungal activity against Candida albicans ATCC 10231 after 24 hrs by micro broth dilution method; assay type: functional; conditions: ATCC 10231, 24 h
Micrococcus luteus [33] = assay: Potency index, ratio of norfloxacin MIC to compound MIC for Micrococcus luteus ATCC 4698; assay type: functional, NCTC 2665
Salmonella enterica [34] = assay: Potency index, ratio of norfloxacin MIC to compound MIC for Salmonella enterica ATCC 14028; assay type: functional

## O=C(O)c1cn(C2CC2)c2cc(N3CCN(Cc4nc5ccccc5n4Cc4ccc(Cl)cc4Cl)CC3)c(F)cc2c1=O
Shigella dysenteriae
  MIC: 1 µg/mL (≈ 1.61 µM)
Staphylococcus aureus [1]
  MIC: 0.125 µg/mL (≈ 0.201 µM)
Staphylococcus aureus [2]
  MIC: 8 µg/mL (≈ 12.9 µM)
Micrococcus luteus [3]
  MIC: 0.0625 µg/mL (≈ 0.101 µM)
Bacillus spizizenii
  MIC: 4 µg/mL (≈ 6.45 µM)
Escherichia coli [4]
  MIC: 0.125 µg/mL (≈ 0.201 µM)
Escherichia coli [5]
  MIC: 1 µg/mL (≈ 1.61 µM)
Pseudomonas aeruginosa
  MIC: 0.5 µg/mL (≈ 0.806 µM)
[6]
  MIC: 0.0312 µg/mL (≈ 0.0503 µM)
Salmonella enterica [7]
  MIC: 0.0312 µg/mL (≈ 0.0503 µM)
Micrococcus luteus [8]
  Ratio: 128
Bacillus [9]
  Ratio: 1025
Salmonella enterica [10]
  Ratio: 1025
Micrococcus luteus [11]
  Ratio: 32
Micrococcus luteus [12]
  Ratio: 8
Bacillus [13]
  Ratio: 16
Salmonella enterica [14]
  Ratio: 8
[15]
  MIC80: 0.25 µg/mL (≈ 0.403 µM)
Staphylococcus aureus [16]
  Activity: 3 log10CFU/ml
Staphylococcus aureus [17]
  IC50: 0.125 µg/mL (≈ 0.201 µM)
Escherichia coli [18]
  IC50: 0.25 µg/mL (≈ 0.403 µM)
Staphylococcus aureus [19]
  Activity: 10.5 log10CFU/ml
Staphylococcus aureus [20]
  Activity: 9.6 log10CFU/ml
Staphylococcus aureus [21]
  Activity: 5 log10CFU/ml
Staphylococcus aureus [22]
  Activity: 0.1 log10CFU/ml
Staphylococcus aureus [23]
  EC50: 0.76 µg/mL (≈ 1.22 µM)
Escherichia coli [24]
  Activity: 10.1 log10CFU/ml
Escherichia coli [25]
  Activity: 12.2 log10CFU/ml
Escherichia coli [26]
  Activity: 7.2 log10CFU/ml
Escherichia coli [27]
  Activity: 3.6 log10CFU/ml
Escherichia coli [28]
  EC50: 1.5 µg/mL (≈ 2.42 µM)
Staphylococcus aureus [29]
  Activity: Active
Escherichia coli [30]
  Activity: Active
Staphylococcus aureus [31]
  MIC: 0.125 µg/mL (≈ 0.201 µM)
Escherichia coli [32]
  inhibition: Active
HEK293
  IC50: 106 µg/mL (≈ 171 µM)
Calf thymus DNA
  K: 4.3 ×10⁴ L/mol
Cyberlindnera jadinii
  MIC80: 0.125 µg/mL (≈ 0.201 µM)
Aspergillus flavus
  MIC80: 0.5 µg/mL (≈ 0.806 µM)
Saccharomyces cerevisiae
  MIC80: 1 µg/mL (≈ 1.61 µM)
Candida albicans
  MIC80: 0.5 µg/mL (≈ 0.806 µM)
Micrococcus luteus [33]
  Ratio: 32
Salmonella enterica [34]
  Ratio: 32
